Among the data in paper PMC11629774 (Science (New York, N.Y.), 2024) are EC50 values, retold here.

This assay concerns primary human tonsillar lymphocytes. The experiment in a line: Toxicity in primary human tonsillar lymphocytes at 72 hours. It counts as cell-based. The conditions noted are these: Lymphocyte, read-out: EC50 toxicity.

In the case of `CC(C)(C)c1cnc(CSc2cnc(NC(=O)C3CCNCC3)s2)o1` [SNS-032], the EC50 is about 0.15 µM.
For `CC(C)(C)c1cnc(CSc2cnc(NC(=O)C3CCN(CC(=O)NCCOCCOCCOCCNc4cccc5c4C(=O)N(C4CCC(=O)NC4=O)C5=O)CC3)s2)o1` (centres unmarked) [THAL-SNS-032], the EC50 is about 0.015 µM.
